Measured values published in US20240300899A1, “A QUINOLONE COMPOUND IN SOLID FORMS AND PROCESSES FOR THE PREPARATION THEREOF” (ZYDUS LIFESCIENCES LIMITED, priority 2021, published 2024).

Key:
Format in all cases: physicochemical
[1] = Hygroscopicity test as per EP general texts 5.11; conditions: 24-hour exposure over saturated ammonium chloride solution, 25±1° C., 80±2% relative humidity
Protocol: Hygroscopicity Data: The test for hygroscopicity was performed as per EP general texts 5.11 page no 565. The test was performed by calculating the difference in weights, after 24-hour upon expose over a saturated solution of ammonium chloride at 25±1° C. and 80±2% relative humidity.

[2] = Stability data on storage (HPLC purity, polymorphic form, impurity content)
Protocol: The crystalline form of compound of Formula (I) is characterized by X-ray powder diffraction (XRPD) pattern. In particular, the solid form of compound of Formula (I) is characterized by X-ray powder diffraction pattern obtained using CuKα1 radiation on a PANalytical X'Pert Pro or equivalent X-ray powder diffraction instrument. Particularly, the X-ray powder diffraction spectrum was measured under the following experimental conditions: The HPLC purity of the compound of Formula (I) was calculated using following method: Instrument Name: Waters Alliance e2695 HPLC system or equivalent [table] [table] [table]

[3] = Powder properties (bulk density, tapped density, angle of repose)
[4] = 25° C. ± 2° C. and 60% ± 5% Relative Humidity, 1 month
[5] = 25° C. ± 2° C. and 60% ± 5% Relative Humidity, 15 days
[6] = 25° C. ± 2° C. and 60% ± 5% Relative Humidity, Initial
[7] = 30° C. ± 2° C. and 65% ± 5% Relative Humidity, 1 month
[8] = 30° C. ± 2° C. and 65% ± 5% Relative Humidity, 15 days
[9] = 30° C. ± 2° C. and 65% ± 5% Relative Humidity, Initial
[10] = 40° C. ± 2° C. and 75% ± 5 % Relative Humidity, 1 month
[11] = 40° C. ± 2° C. and 75% ± 5 % Relative Humidity, 15 days
[12] = 40° C. ± 2° C. and 75% ± 5 % Relative Humidity, Initial

- Hygroscopicity result [1]: Non-hygroscopic
- Increase in mass (hygroscopicity) [1]: less than 0.2%
- Content of Compound of Formula D [2, 4]: 0.04%
- HPLC Purity [2, 4]: 99.91%
- Polymorphic form [2, 4]: Unchanged
- Content of Compound of Formula D [2, 5]: 0.05%
- HPLC Purity [2, 5]: 99.87%
- Polymorphic form [2, 5]: Unchanged
- Content of Compound of Formula D [2, 6]: 0.04%
- HPLC Purity [2, 6]: 99.9%
- Content of Compound of Formula D [2, 7]: 0.04%
- HPLC Purity [2, 7]: 99.91%
- Polymorphic form [2, 7]: Unchanged
- Content of Compound of Formula D [2, 8]: 0.05%
- HPLC Purity [2, 8]: 99.83%
- Polymorphic form [2, 8]: Unchanged
- Content of Compound of Formula D [2, 9]: 0.04%
- HPLC Purity [2, 9]: 99.9%
- Content of Compound of Formula D [2, 10]: 0.04%
- HPLC Purity [2, 10]: 99.92%
- Polymorphic form [2, 10]: Unchanged
- Content of Compound of Formula D [2, 11]: 0.05%
- HPLC Purity [2, 11]: 99.85%
- Polymorphic form [2, 11]: Unchanged
- Content of Compound of Formula D [2, 12]: 0.04%
- HPLC Purity [2, 12]: 99.9%
- Angle of Repose [3]: 30.6 °
- Bulk Density [3]: 0.61 g/mL
- Tapped Density [3]: 0.73 g/mL
SMILES: O=C(O)CNC(=O)c1c(O)c2ccccc2n(OCC2CC2)c1=O [Example-1, (1-(cyclopropylmethoxy)-4-hydroxy-2-oxo-1,2-dihydroquinoline-3-carbonyl) glycine]
